{
  "source": "patent US6426366B1",
  "about": "“Pharmaceutical compositions comprising tyrphostins” (priority 1996, dated 2002)",
  "key": {"[1]": {"test_system": "A9 mouse fibroblastic cells", "assay": "TNF-α-induced apoptosis and Go/G1 arrest (FACS, propidium iodide)", "format": "cell-based"}, "A-9 cells": {"test_system": "A-9 cells", "assay": "TNF-induced cytotoxicity in vitro", "format": "cell-based, mouse", "settings": "AG (20 μM)"}, "CD1 mice [2]": {"test_system": "CD1 mice", "assay": "LPS-induced lethal toxicity in vivo", "settings": "tyrphostin 20 mg/kg i.p. two hours prior to E. coli LPS […] i.p."}, "CD1 female mice": {"test_system": "CD1 female mice", "assay": "5 FU myelotoxicity (bone marrow nucleated cells)", "format": "in vivo", "settings": "5 FU 80 mg/kg i.p. alone; five days (FIG. 15)"}, "CD1 mice [3]": {"test_system": "CD1 mice", "assay": "Cisplatin nephrotoxicity: serum creatinine and BUN", "format": "in vivo", "settings": "tyrphostin 10 mg/kg i.p. 2 h before cisplatin 14 mg/kg i.p.; four days (FIG. 5)"}, "CD1 mice [4]": {"test_system": "CD1 mice", "assay": "Reduction of cisplatin-caused mouse mortality", "format": "in vivo", "settings": "cisplatin 14 mg/kg alone"}, "CD1 mice [5]": {"test_system": "CD1 mice", "assay": "Histopathological analysis of kidneys and small intestines after cisplatin", "format": "in vivo"}, "MCA-105 fibrosarcoma": {"test_system": "MCA-105 fibrosarcoma", "assay": "MCA-105 fibrosarcoma lung metastases in mice", "format": "in vivo", "settings": "for weight of the lungs of tumor bearing mice: single agent: AG1801 5 mg/kg, cisplatin 10 mg/kg or doxorubicin 10 mg/kg, 4 days after inoculation (FIG. 25)"}, "[6]": {"test_system": "Lewis Lung carcinoma cells", "assay": "Lewis lung carcinoma lung metastases in mice", "format": "in vivo", "settings": "agent by itself: cisplatin 4 mg/kg or AG1714 20 mg/kg (FIG. 21B)"}, "SK-28 human melanoma": {"test_system": "SK-28 human melanoma", "assay": "SK-28 human melanoma tumor xenografts in nude mice", "format": "in vivo"}, "[7]": {"test_system": "human ovary carcinoma (OVCAR-3) cells", "assay": "OVCAR-3 human ovary carcinoma tumor volume in athymic mice", "format": "in vivo", "settings": "agent by itself: cisplatin 4 mg/kg or AG1714 20 mg/kg; twenty days (FIG. 23)"}, "CD1 mice [8]": {"test_system": "CD1 mice"}, "CD1 mice [9]": {"test_system": "CD1 mice", "assay": "Reduction of doxorubicin-caused mouse mortality", "format": "in vivo"}, "[10]": {"test_system": "primary rat cardiomyocytes cultures", "assay": "Doxorubicin-induced cardiotoxicity in vitro (cellular beating)", "format": "cell-based", "settings": "doxorubicin 10 μM alone; 24 hours"}, "CD1 mice [11]": {"test_system": "CD1 mice", "assay": "Doxorubicin lymphotoxicity (weight of spleen and thymus)", "format": "in vivo", "settings": "doxorubicin 10 mg/kg i.p. alone; 72 hours"}, "CD1 mice [12]": {"test_system": "CD1 mice", "assay": "Doxorubicin induced myelotoxicity (femur bone marrow nucleated cells, CFU)", "settings": "doxorubicin 10 mg/kg i.p. alone; 3 days (FIG. 12B)"}, "[13]": {"settings": "Cyclophosphamide (50 mg/kg) alone (−), 72 hours"}, "[14]": {"settings": "Table 6A, Doxorubicin (8 mg/kg) alone"}, "[15]": {"settings": "Table 5A, Doxorubicin (4 mg/kg) alone"}, "[16]": {"settings": "Table 5A, Doxorubicin (8 mg/kg) alone"}, "[17]": {"settings": "Table 5B, Doxorubicin (4 mg/kg) alone"}, "[18]": {"settings": "Table 5B, Doxorubicin (8 mg/kg) alone"}},
  "note": "Entries after “also recorded” stand apart in the source; their conditions may differ. Where two headings read alike, the source gives them in different places.",
  "data": [
    {"molecule": "N#CC(C#N)=Cc1ccc([N+](=O)[O-])c(O)c1", "note": "[AG126]", "values": [
      {"measurement": "Apoptosis (%)", "setting": "[1]; TNF-α (0.2 ng/ml) +, ten hours, cycloheximide 50 μg/ml, tyrphostins 20 μM, except AG1801 5 μM", "value": 19.4, "unit": "%"},
      {"measurement": "Apoptosis (%)", "setting": "[1]; TNF-α −, cycloheximide 50 μg/ml, tyrphostins 20 μM, except AG1801 5 μM", "value": 8.3, "unit": "%"},
      {"measurement": "live cells, % of control", "setting": "A-9 cells; TNF 0.05 ng/ml", "value": "75 % of control"},
      {"measurement": "live cells, % of control", "setting": "A-9 cells; TNF 0.2 ng/ml", "value": "49 % of control"},
      {"measurement": "live cells, % of control", "setting": "A-9 cells; TNF 1.0 ng/ml", "value": "33 % of control"},
      {"measurement": "live cells, % of control", "setting": "A-9 cells; TNF None", "value": "107 % of control"},
      {"measurement": "% alive mice", "setting": "CD1 mice [2]", "value": 80, "unit": "%"},
      {"measurement": "alive/total", "setting": "CD1 mice [2]", "value": "4/5"}
    ]},
    {"molecule": "TNF-α", "values": [
      {"measurement": "Cell cycle % G1", "setting": "[1]; TNF-α (0.2 ng/ml) alone", "value": 85.8, "unit": "%"},
      {"measurement": "Cell cycle % G2 + M", "setting": "[1]; TNF-α (0.2 ng/ml) alone", "value": 6.6, "unit": "%"},
      {"measurement": "Cell cycle % S", "setting": "[1]; TNF-α (0.2 ng/ml) alone", "value": 7.6, "unit": "%"},
      {"measurement": "Apoptosis (%)", "setting": "[1]; Table 9, TNF-α (0.2 ng/ml) alone", "value": 28.7, "unit": "%"}
    ]},
    {"molecule": "O=c1[nH]cc(F)c(=O)[nH]1", "note": "[5 FU, 5-fluorouracil]", "values": [
      {"measurement": "number of nucleated cells in the bone marrow", "setting": "CD1 female mice", "value": "decrease in the number of nucleated cells"}
    ]},
    {"molecule": "N#CC(=Cc1ccc([N+](=O)[O-])cc1)C(N)=S", "note": "[AG1744]", "values": [
      {"measurement": "nephrotoxicity of cisplatin (serum creatinine level)", "setting": "CD1 mice [3]", "value": "markedly reduced the nephrotoxicity of cisplatin"}
    ]},
    {"molecule": "N.N.[Cl][Pt][Cl]", "note": "[Cisplatin, cisplatin]", "values": [
      {"measurement": "mortality", "setting": "CD1 mice [4]", "value": "all the mice in the group receiving cisplatin alone died within ten days"},
      {"measurement": "histopathology of kidneys", "setting": "CD1 mice [5]; cisplatin 14 mg/kg alone (FIG. 7B)", "value": "large proteinaceous plaques in the proximal tubals; also recorded: large proteinaceous plaques in the proximal tubules"},
      {"measurement": "histopathology of small intestine", "setting": "CD1 mice [5]; cisplatin 14 mg/kg alone (FIG. 7E)", "value": "severe necrosis and disintegration of the columnar intestinal epithelial cells; also recorded: severe necrosis and damage"},
      {"measurement": "anti-tumor effect (lungs' weight, established lung metastases)", "setting": "MCA-105 fibrosarcoma; agent by itself: cisplatin 4 mg/kg or AG1714 20 mg/kg i.p., 24 days (FIG. 21A)", "value": "markedly inhibited the growth"},
      {"measurement": "weight of the lungs of tumor bearing mice", "setting": "MCA-105 fibrosarcoma", "value": "reduced the weight of the mice's lungs to a weight similar to that of control non tumor bearing mice"},
      {"measurement": "anti-tumor effect (lungs' weight, established lung metastases)", "setting": "[6]", "value": "partial anti-tumor effect"},
      {"measurement": "weight of the lungs of tumor bearing mice", "setting": "SK-28 human melanoma; single agent: cisplatin or AG1801 (FIG. 26)", "value": "reduced the weight of the lungs of the tumor bearing mice to an extent"},
      {"measurement": "anti-tumor effect (tumor volume)", "setting": "[7]", "value": "marked anti-tumor effect"},
      {"measurement": "anti-tumor effect (lungs' weight, established lung metastases)", "setting": "B-16 melanoma; agent alone: Cisplatin (4 mg/kg) or AG1714 (20 mg/kg) (FIG. 21C)", "value": "not effective"}
    ]},
    {"molecule": "O=P1(N(CCCl)CCCl)NCCCO1", "note": "(stereo not drawn) [Cyclophosphamide, cyclophosphamide]", "values": [
      {"measurement": "Nucleated cells in bone marrow (× 10^6)", "setting": "CD1 mice [8]; [13]", "value": "6.2 × 10^6"},
      {"measurement": "Spleen", "setting": "CD1 mice [8]; [13]", "value": 52, "unit": "mg"},
      {"measurement": "Thymus", "setting": "CD1 mice [8]; [13]", "value": 39, "unit": "mg"},
      {"measurement": "number of nucleated cells in the bone marrow, spleen and thymus", "setting": "CD1 mice [8]; cyclophosphamide 50 mg/kg alone", "value": "significant reduction in the number of nucleated cells"}
    ]},
    {"molecule": "COc1cccc2c1C(=O)c1c(O)c3c(c(O)c1C2=O)C[C@@](O)(C(=O)CO)C[C@@H]3O[C@H]1C[C@H](N)[C@H](O)[C@H](C)O1", "note": "[Doxorubicin, doxorubicin]", "values": [
      {"measurement": "mortality of the mice", "setting": "CD1 mice [9]; 10 i.p. doxorubicin injections 5 mg/kg over 21 days, alone", "value": "high mortality"},
      {"measurement": "% mortality", "setting": "CD1 mice [9]; doxorubicin 20 mg/kg i.p. alone, within a week after injection", "value": 90, "unit": "%"},
      {"measurement": "Cellular beating (beats/min)", "setting": "[10]", "value": "15 ± 1.3", "unit": "beats/min"},
      {"measurement": "number of beats per minute relative to control cultures", "setting": "[10]", "value": "about 20%"},
      {"measurement": "weight of spleens and thymuses", "setting": "CD1 mice [11]", "value": "significant reduction in the weight of spleens"},
      {"measurement": "Mortality (dead/total)", "setting": "MCA-105 fibrosarcoma; Table 6A, Doxorubicin (4 mg/kg) alone", "value": "0/5"},
      {"measurement": "Lungs' weight (mg + SEM)", "setting": "MCA-105 fibrosarcoma; [14]", "value": "170 ± 4", "unit": "mg"},
      {"measurement": "Mortality (dead/total)", "setting": "MCA-105 fibrosarcoma; [14]", "value": "5/8"},
      {"measurement": "Mortality, percent in brackets", "setting": "MCA-105 fibrosarcoma; [14]", "value": 62.5, "unit": "%"},
      {"measurement": "weight of the lungs of tumor bearing mice", "setting": "MCA-105 fibrosarcoma", "value": "reduced the weight of the mice's lungs to a weight similar to that of control non tumor bearing mice"},
      {"measurement": "growth of the SK-28 tumor (lungs' weight, metastases)", "setting": "SK-28 human melanoma; agent by itself: doxorubicin 4 mg/kg or AG1714 20 mg/kg, 24 days (FIG. 22)", "value": "markedly suppressed the growth"},
      {"measurement": "Mortality (dead/total)", "setting": "B-16 melanoma; [15]", "value": "0/4"},
      {"measurement": "No. of lungs' metastases (+ SD)", "setting": "B-16 melanoma; [15]", "value": "7 ± 4"},
      {"measurement": "Mortality (dead/total)", "setting": "B-16 melanoma; [16]", "value": "3/4"},
      {"measurement": "Mortality, percent in brackets", "setting": "B-16 melanoma; [16]", "value": 75, "unit": "%"},
      {"measurement": "No. of lungs' metastases (+ SD)", "setting": "B-16 melanoma; [16]", "value": 1},
      {"measurement": "Lungs' weight (mg + SEM)", "setting": "B-16 melanoma; [17]", "value": "306 ± 12", "unit": "mg"},
      {"measurement": "Mortality (dead/total)", "setting": "B-16 melanoma; [17]", "value": "0/6"},
      {"measurement": "Mortality (dead/total)", "setting": "B-16 melanoma; [18]", "value": "7/8"},
      {"measurement": "Mortality, percent in brackets", "setting": "B-16 melanoma; [18]", "value": 88, "unit": "%"},
      {"measurement": "reduction in CFU", "setting": "CD1 mice [12]", "value": 55, "unit": "%"}
    ]}
  ]
}
